Experimental data as given in publication PMC11505594, “Design, Synthesis, and Anti-Melanogenic Activity of 2-Mercaptomethylbenzo[d]imidazole Derivatives Serving as Tyrosinase Inhibitors: An In Silico, In Vitro, and In Vivo Exploration” (Antioxidants, 2024).
Where two headings read alike, the source gives them in different places.

Tests used:
[1] = Copper(II) ion-chelating activity using pyrocatechol violet; conditions: test samples 100 μM, pH 6.0
Procedure: Copper(II) ion-chelating activity was measured using pyrocatechol violet reagent, a copper(II)-chelating agent. Copper(II) sulfate solution (10 μL, 1 mg/mL) was added to each well of a 96-well microplate containing acetic acid–sodium acetate buffer (280 μL, 50 mM [pH 6.0]), 2-MMBI derivative (1–10; 10 μL, 100 μM as a final concentration), and pyrocatechol violet (6 μL, 4 mM). Absorbance was measured at 632 nm using a VersaMax™ reader after the microplate was incubated for 20 min at 24 °C. Cu(II) ion-chelating activity (%) = 100 × [(Abscon − Abssam)/Abscon] where Abscon and Abssam are the absorbances of the control and samples, respectively. Each experiment was independently performed in triplicate.

[2] = tested on: zebrafish larvae; assay: Melanogenesis (depigmentation) assay using zebrafish embryos; format: in vivo
Procedure: To assess depigmentation in vivo, wild-type zebrafish (Danio rerio) embryos were acquired free of charge from the Zebrafish Center for Disease Modeling (ZCDM) located at Chungnam National University in Daejeon, Republic of Korea. The zebrafish were raised in tanks maintained at 28 °C in the ZCDM. The tanks were oxygenated, and the tank lights were turned off for 10 h and on for 14 h. The zebrafish embryos used for in vivo depigmentation experiments were obtained through natural mating. The E3 solution for zebrafish embryos was prepared by dissolving 19.9 mg magnesium sulfate, 6.4 mg potassium chloride, 18.3 mg calcium chloride, and 146.1 mg sodium chloride in 500 mL distilled water. E3-MB (methylene blue) solution was prepared by adding MB to the E3 solution to create a 0.001% MB solution. The acquired zebrafish embryos were transferred to a culture dish containing the E3-MB solution. The culture dish was incubated at 28 °C until zebrafish embryos were used. Since zebrafish embryos are sensitive and can be easily killed by the chorion removal process 20 h post-fertilization (20 hpf), the chorion was removed at 24 hpf through treatment with pronase (Sigma-Aldrich, St. Louis, MO, USA). Five dechorionated zebrafish embryos were transferred to each well of 48-well microplates containing 250 μL E3 solution. […] Zebrafish larvae were anesthetized with tricaine at 76 hpf and placed on a 1% methylcellulose block to determine the degree of zebrafish larva depigmentation. Dorsal and lateral images of the zebrafish larvae were acquired using an SMZ745T microscope (Nikon, Tokyo, Japan). The pigmented areas of the dorsal and lateral images were obtained using CS analyzer 3.0 image analysis software (ATTO, Tokyo, Japan). Each assay (n = 7) was independently performed two times.

[3] = Reactive oxygen species removal activity assay (SIN-1, DCFH); conditions: test samples 40 μM; SIN-1 10 μM
Procedure: To assess reactive oxygen species (ROS) removal activity, a DCFH solution was prepared by mixing 50 μL DCFH-DA (1.25 mM), 50 μL esterase (0.6 unit/μL), and 4.9 mL phosphate buffer (50 mM) and maintained in the dark for 30 min. The SIN-1 solution (10 μL) was added to each well of a 96-black well that contained the test sample (10 μL; 2-MMBI derivatives 1–10 and Trolox [positive material]) and phosphate buffer (180 μL). 2-MMBI derivatives, Trolox, and SIN-1 were exposed at final concentrations of 40, 40, and 10 μM, respectively. The prepared DCFH solution (50 μL) was added to each well after 10 min. The fluorescence intensity of 2′,7′-dichlorofluorescein in the wells was measured at 535 nm using a microplate reader (Berthold Advances GmbH & Co., Bad Wildbad, Germany) with an excitation wavelength of 485 nm. Each experiment was conducted independently four times.

[4] = target: T1, mushroom TYR (Agaricus bisporus, UniProt C7FF04); assay: Mushroom TYR activity assay with and without CuSO4; format: biochemical; conditions: 20 μM derivative, L-tyrosine
Procedure: To determine whether copper(II) ions influence the TYR-inhibitory activity of 2-MMBI derivatives, the effects of these derivatives on mushroom TYR activity were measured with and without CuSO4. Briefly, mushroom TYR aqueous solution (20 μL, 1 unit/μL) was mixed with 2-MMBI derivatives (1, 3, and 8–10) (10 μL, final concentration: 20 μM) and with the substrate solution (170 μL), comprising 17.2 mM phosphate buffer (pH 6.5) and 345 μM L-tyrosine, in the presence or absence of CuSO4 (50 μL, final concentration: 50 μM) in each well of a 96-well plate. […] Each assay was carried out independently in triplicate.

[5] = target: T1, mushroom TYR; assay: Kinetic studies on mushroom TYR (Lineweaver–Burk and Dixon plots); format: biochemical; conditions: L-dopa as substrate
Procedure: Kinetic experiments were performed to obtain Lineweaver–Burk plots for the analysis of mushroom TYR kinetics. Mushroom TYR solution (20 μL, 150 units/mL) was added to each well of a 96-well microplate containing 2-MMBI derivatives (10 μL; 0, 7.5, 15, and 30 μM for 1; 0, 5, 10, and 20 μM for 3 and 8; and 0, 12.5, 25, and 50 μM for 9) and a substrate solution (170 μL) composed of sodium phosphate buffer (17.2 mM; pH 6.5) and L-dopa (various concentrations: 0.5, 1, 2, 4, 8, and 16 mM). […] Lineweaver–Burk plots for each 2-MMBI derivative were obtained by plotting the value of 1/[substrate] against the value of (min/ΔOD475). Lineweaver–Burk plots were transformed into corresponding Dixon plots by plotting the value of (min/ΔOD475) against the value of the 2-MMBI derivative concentration.

[6] = tested on: B16F10 cells; assay: Melanin content measurement assay in B16F10 cells; format: cell-based, murine; conditions: α-MSH 1 μM plus IBMX 200 μM, 72 h
Procedure: A 6-well plate containing 5 × 10^3 B16F10 cells per well was incubated at 37 °C and 5% CO2 for 1 day. […] After 1 h, 1 μM α-MSH and 200 μM IBMX were added to each well, and the plate was subsequently incubated at 37 °C and 5% CO2 for 72 h. The cells were exposed to […] 1N-NaOH solution and cultured at 60 °C for 1 h after washing with PBS. The lysates were transferred to each well of a 96-well plate, and the optical density at 405 nm was recorded using a VersaMax™ reader. […] Each assay was independently performed three times.

[7] = target: T2, B16F10 cellular TYR (Mus musculus, UniProt P11344); assay: TYR activity assay in B16F10 cells; format: cell-based, murine; conditions: 2, 5, and 10 μM; α-MSH 1 μM plus IBMX 200 μM; 72 h
T2 construct: The in situ cellular TYR activities of the 2-MMBI derivatives were investigated using B16F10 cells; endogenous in cells; host or cells: B16F10 murine melanoma cells stimulated with alpha-MSH and IBMX
T2 sequence (P11344 19-533): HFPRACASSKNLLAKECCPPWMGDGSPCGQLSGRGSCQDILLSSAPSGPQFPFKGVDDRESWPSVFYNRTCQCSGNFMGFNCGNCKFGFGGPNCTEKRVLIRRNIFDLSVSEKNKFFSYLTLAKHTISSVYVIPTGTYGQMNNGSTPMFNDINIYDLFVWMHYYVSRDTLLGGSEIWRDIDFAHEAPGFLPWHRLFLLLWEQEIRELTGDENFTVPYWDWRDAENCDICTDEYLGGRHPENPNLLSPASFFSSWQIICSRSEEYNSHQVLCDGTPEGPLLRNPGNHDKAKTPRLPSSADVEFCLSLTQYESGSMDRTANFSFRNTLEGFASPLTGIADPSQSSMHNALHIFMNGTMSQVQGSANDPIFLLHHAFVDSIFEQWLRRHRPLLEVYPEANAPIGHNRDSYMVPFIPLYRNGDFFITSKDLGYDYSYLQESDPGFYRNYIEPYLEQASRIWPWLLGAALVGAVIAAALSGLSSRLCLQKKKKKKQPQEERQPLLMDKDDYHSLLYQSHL
Procedure: A 6-well plate containing 5 × 10^3 B16F10 cells per well was incubated (37 °C and 5% CO2) for 1 day. […] Stimulators (1 μM α-MSH and 200 μM IBMX) were added after 1 h, and the plate was incubated (37 °C and 5% CO2) for 72 h. After washing with PBS, 100 μL lysis buffer consisting of 1% Triton X-100, 1 mM phenylmethylsulfonyl fluoride, and 50 mM sodium phosphate buffer (pH 6.5) in a volume ratio of 1:1:18 was added to each well. Following an incubation period of 30 min at −80 °C, the cell lysates were centrifuged at 12,000× g for 10 min at 4 °C to obtain the supernatants. […] Each assay was independently performed three times.

[8] = DPPH radical removal assay; conditions: 500 μM; 30 min in the dark
Procedure: An aliquot (20-μL DMSO solution) of a test sample (5 mM 2-MMBI derivatives 1–10 and 5 mM vitamin C [positive material]) was added to each well of a 96-well microplate containing 180 μL DPPH methanol solution (0.2 mM). After the mixture was left in the dark at 22 °C for 30 min, the optical density at 517 nm was recorded using a VersaMax™ reader. Each experiment was conducted independently in triplicate.

[9] = ABTS●+ scavenging assay; conditions: 100 μM
Procedure: A 2.45 mM K2S2O8 aqueous solution was mixed with a 7-mM ABTS aqueous solution in a 1:1 volume ratio. The mixture was left at 20 °C in the dark for 19 h. To adjust the adequate absorbance (0.70 ± 0.01) at 732 nm, the mixture was diluted with methanol. The diluted ABTS^●+ mixture (90 μL) in each well of a 96-well plate was mixed with a test sample (2-MMBI derivatives 1–10 and Trolox [positive material]; 10 μL in EtOH/DMSO [9/1 (v/v)] solution). All test samples were tested at a final concentration of 100 μM. Prior to the measurement of well optical density at 732 nm at 1-min intervals for 10 min using a VersaMax™ reader, the test sample-ABTS^●+ mixture was stored for 2 min in the dark. Each experiment was conducted independently in triplicate.

T1 sequence (C7FF04 2-392): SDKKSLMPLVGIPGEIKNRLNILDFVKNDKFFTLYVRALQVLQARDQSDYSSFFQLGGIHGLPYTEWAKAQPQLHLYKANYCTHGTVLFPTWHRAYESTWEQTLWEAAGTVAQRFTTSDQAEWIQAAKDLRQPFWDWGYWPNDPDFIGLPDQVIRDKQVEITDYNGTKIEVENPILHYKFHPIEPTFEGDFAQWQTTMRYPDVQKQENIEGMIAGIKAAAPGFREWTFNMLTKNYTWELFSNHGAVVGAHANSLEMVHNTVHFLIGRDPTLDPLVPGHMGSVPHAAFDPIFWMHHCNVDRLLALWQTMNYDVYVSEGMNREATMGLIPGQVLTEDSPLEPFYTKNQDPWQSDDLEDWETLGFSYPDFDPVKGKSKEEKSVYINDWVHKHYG

**Q.** With O=[N+]([O-])c1ccc2[nH]c(CS)nc2c1 [Derivative 6, (5-Nitro-1H-benzo[d]imidazol-2-yl)methanethiol] as the compound, how does the copper chelating activity [1] read?
**A.** The copper chelating activity was 35%.

**Q.** What about the “depigmentation of zebrafish larvae at 0.03 and 0.1 mM” value ([2]; 0.03 and 0.1 mM, 48 h) of the same compound?
**A.** Its value is “did not exhibit significant depigmentation”.

**Q.** What about the ROS scavenging activity [3] of the same compound?
**A.** The ROS scavenging activity was “stronger ROS scavenging efficacy than the other derivatives”.

**Q.** What does the source list for Cc1ccc2[nH]c(CS)nc2c1 [Derivative 8, (5-Methyl-1H-benzo[d]imidazol-2-yl)methanethiol]?
**A.** inhibition at 20 µM ([4]; CuSO4 50 μM added externally, read-out: inhibition of mushroom TYR activity with CuSO4): 63%; inhibition at 20 µM ([4]; no CuSO4 added externally, read-out: inhibition of mushroom TYR activity without CuSO4): 86 to 89%; inhibition mechanism [5]: mixed TYR inhibitors; effect on B16F10 cellular melanin production at 10 μM [6]: inhibited melanin production more strongly than kojic acid; effect on B16F10 cellular melanin production at three concentrations ([6]; 2, 5, and 10 μM): significantly decreased the melanin levels increased by the stimulators in a concentration-dependent manner; effect on B16F10 cellular TYR activity [7]: significantly reduced stimulator-enhanced cellular TYR activity in a dose-dependent manner; depigmentation of zebrafish larvae at 0.03 mM ([2]; 0.03 mM, compared with kojic acid 20 mM, 48 h): much stronger depigmentation efficacy than kojic acid

**Q.** What does the source list for O=c1cc(CO)occ1O [Kojic acid, reference compound]?
**A.** copper chelating activity [1]: 27%; effect on B16F10 cellular melanin production at 10 μM [6]: decreased the stimulator-induced melanin levels; depigmentation of zebrafish larvae, kojic acid ([2]; 20 mM, 48 h, compared to control): significantly reduced melanin pigments; pigmentation area of zebrafish larvae (CS analyzer, dorsal and lateral views) ([2]; derivatives 0.03 and 0.1 mM, kojic acid 20 mM): significantly reduced pigmentation

**Q.** With O=C1O[C@H]([C@@H](O)CO)C(O)=C1O [L-ASCORBIC acid, L-ascorbic acid] as the compound, how does the “DPPH radical scavenging activity” value [8] read?
**A.** Its value is 97%.

**Q.** With NC(=S)Nc1ccccc1 [PTU, phenylthiourea] as the compound, how does the copper chelating activity [1] read?
**A.** The copper chelating activity was 37%.

**Q.** Which “ABTS●+ inhibition” value [9] does the source give for Cc1c(C)c2c(c(C)c1O)CCC(C)(C(=O)O)O2 (stereo not drawn) [Trolox, reference compound] here?
**A.** Its value is 99%.

**Q.** What about the ROS scavenging activity [3] of the same compound?
**A.** The ROS scavenging activity was “highest ROS scavenging activity”.
